Here are results for 27 compounds from patent US10940188B2, “Compounds and methods for treatment and prevention of Flavivirus infection” (priority 2016, dated 2021).

Where “and” joins values, the source holds several entries; their conditions need not be identical. Equal values may be shown once. Read-outs that look alike come from different tables or passages of the source.

The test relates to ZIKV-induced caspase 3/7 activity in human astrocytes. As to the kind of experiment: Caspase 3/7 activity assay, ZIKV-infected human astrocytes. Format: cell-based. The note with it: for IC50: read-out: Caspase 3 (IC50, uM) Astrocyte; for Emax: read-out: Caspase 3 (efficacy, %) Astrocyte. A digest of the protocol:
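Human NPCs, SNB-19 cells or astrocytes seeded 16 h, compound added 30 min before ZIKV, then 6 h infection at 37 °C. Caspase-Glo 3/7 luminescence after 30 min at room temperature, normalized to uninfected cells (0%) and ZIKV-infected cells (100%).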

The mark [1] stands for this setting: Astrocyte, ZIKV-infected human astrocytes.

`Cc1cccc(C#Cc2ccccc2)n1` [MPEP, 2-Methyl-6-(phenylethynyl)pyridine]: under setting [1], the IC50 amounted to 5.81 µM and the Emax was 118%.
Vitamin B12: where the note is “ZIKV-infected human astrocytes”, the “Caspase 3 (efficacy, %) Astrocyte” value was 77.1% and 62.7%; the IC50 is 8.69 µM and 6.73 µM.
With `CN(C)CCCSc1ccccc1NC(=O)/C=C/c1ccccc1` [Cinanserin], under setting [1], the IC50 was determined as 15.5 µM and the Emax worked out at 80.2%.
In the case of `Cc1cc(O)c2c(c1)C(=O)c1cc(O)cc(O)c1C2=O` [Emodin], under setting [1], the IC50 is 3.27 µM and the Emax turned out to be 86.4%.
Regarding Flurbiprofen axetil, under “ZIKV-infected human astrocytes”, the “Caspase 3 (efficacy, %) Astrocyte” value worked out at 65.5% and the half-inhibitory concentration (IC50) is 21.8 µM.
`O=C(O)c1ccccc1Nc1cccc(C(F)(F)F)c1` [Flufenamic acid]: under setting [1], the IC50 came out at 8.69 µM and the Emax came out at 71.9%.
Regarding `Cc1cccc(/C=C/c2ccccc2)n1` [SIB 1893], where the note is “ZIKV-infected human astrocytes”, the “Caspase 3 (efficacy, %) Astrocyte” value was 96.2% and the concentration for half-maximal inhibition (IC50) was found to be 12.3 µM.
For `O=C(O)CCC(=O)c1ccc(-c2ccccc2)cc1` [Fenbufen], under setting [1], the half-maximal inhibitory concentration (IC50) came to 21.8 µM and the Emax came to 81.5%.
As for `COc1ccc(-c2cc(=S)ss2)cc1` [Anethole trithione], under setting [1], the half-maximal inhibitory concentration (IC50) is 13.8 µM and the Emax was found to be 62.7%.
As to `O=C(Oc1ccccc1)c1cccc(C(=O)Oc2ccccc2)c1` [Diphenyl isophthalate], under setting [1], the IC50 was found to be 6.68 µM and the Emax turned out to be 104%.
On to `O=C(Nc1ccc(C(=O)O)c(O)c1)c1ccccc1` [Benzoylpas], for which, under setting [1], the IC50 was 5.81 µM and the Emax was 94.9%.
On to `CC(C(=O)O)c1ccc(C(=O)c2cccs2)cc1` (centres unmarked) [Suprofen], for which, under setting [1], the IC50 is 19.5 µM and the Emax was determined as 64.5%.
Taken in the same sequence, the figures for `COc1cccc(-c2ccc(NC(=O)C3=C(C(=O)O)CCC3)c(F)c2)c1` [Vidofludimus] were 2.91 µM and 101%.
Consider `CC(=O)Oc1cccc2c1C(=O)c1c(OC(C)=O)cc(C(=O)O)cc1C2=O` [Diacerein], for which, under setting [1], the IC50 was 15.5 µM and the Emax amounted to 72.9%.
As for `O=C1NC(=O)C(=Cc2ccc(-c3ccc(F)cc3)o2)S1` [CAY10505], where the note is “ZIKV-infected human astrocytes”, the “Caspase 3 (efficacy, %) Astrocyte” value came out at 80.1% and the IC50 is 16.4 µM.
Regarding `N#CC1(c2ccc(NC(=O)c3cccnc3NCc3ccncc3)cc2)CCCC1` [Apatinib], under setting [1], the IC50 turned out to be 19.5 µM and the Emax stood at 57.9%.
As to `Cc1ccc(O)c(-n2nc3ccccc3n2)c1` [2-(2H-Benzotriazol-2-yl)-4-methylphenol], under setting [1], the IC50 is 9.2 µM and the Emax worked out at 68.5%.
`CCOCCOC(=O)C=Cc1ccc(OC)cc1` [2-Ethoxylethyl-p-methoxycinnamate]: the Emax under setting [1] worked out at 0%.
Take `O=C(c1ccccc1)c1ccc2n1CCC2C(=O)O` (centres unmarked) [Ketorolac tromethamine]: under setting [1], the half-inhibitory concentration (IC50) came out at 21.8 µM and the Emax was 61.7%.
As for `c1ccc(CCNc2nc(-c3ccccc3)cs2)cc1` [Fanetizole], under setting [1], the IC50 was 10.9 µM and the Emax was 72.9%.
In the case of `CCC(C(=O)O)c1ccc(N2Cc3ccccc3C2=O)cc1` (centres unmarked) [Indobufen], under setting [1], the half-maximal inhibitory concentration (IC50) stood at 6.52 µM and the Emax was 86.3%.
Turning to `O=S(=O)(O)c1ccc2[nH]c(-c3ccccc3)nc2c1` [Ensulizole], under “Homo sapiens, Astrocyte”, the IC50 was determined as 1.95 µM and the Emax was found to be 82.7%.
As for `Nc1nc2ccc([N+](=O)[O-])cc2s1` [2-Amino-6-nitrobenzothiazole], under setting [1], the IC50 worked out at 39.8 µM and the Emax came out at 54.1%.
For `O=C(OCc1ccccc1)c1ccc(O)cc1` [Benzylparaben], in that order: 17.3 µM and 62.8%.
Taken in the same sequence, the figures for `c1ccc2[nH]c(-c3cscn3)nc2c1` [Thiabendazole] were 10.3 µM and 81%.
As for `O=C(O)c1ccccc1NCCc1ccccc1` [Enfenamic acid], under setting [1], the 50% inhibitory concentration (IC50) worked out at 25.9 µM and the Emax was determined as 58%.
Consider `CC(C(=O)O)c1ccc(C(=O)c2ccccc2)s1` (centres unmarked) [Tiaprofenic acid], for which, under setting [1], the 50% inhibitory concentration (IC50) came to 6.15 µM and the Emax turned out to be 88.2%.

A word on the IC50: it is the concentration at which inhibition is half-maximal.
